Measurements reported in US20060223812A1, “Treating neurodegenerative conditions” (MAX-PLANCK-GESELLSCHAFT ZUR FORDERUNGDER WISSENSCHAFTEN, …, priority 2004, published 2006).
Like-named read-outs stand apart in the source and are kept apart here.

Experiments:
htau23 = molecular target: T1, htau23 (Homo sapiens, UniProt P10636); assay: Thioflavine S assay, inhibition of PHF formation, htau23; type: biochemical; conditions: for inhibition at 0.1 µM / inhibition at 60 µM: read-out: inhibition of PHF formation, htau23; for effect on PHF formation, htau23: low concentration
T1 construct: made in house; host or cells: E. coli
T1 sequence (P10636 1-352 isoform P10636-2): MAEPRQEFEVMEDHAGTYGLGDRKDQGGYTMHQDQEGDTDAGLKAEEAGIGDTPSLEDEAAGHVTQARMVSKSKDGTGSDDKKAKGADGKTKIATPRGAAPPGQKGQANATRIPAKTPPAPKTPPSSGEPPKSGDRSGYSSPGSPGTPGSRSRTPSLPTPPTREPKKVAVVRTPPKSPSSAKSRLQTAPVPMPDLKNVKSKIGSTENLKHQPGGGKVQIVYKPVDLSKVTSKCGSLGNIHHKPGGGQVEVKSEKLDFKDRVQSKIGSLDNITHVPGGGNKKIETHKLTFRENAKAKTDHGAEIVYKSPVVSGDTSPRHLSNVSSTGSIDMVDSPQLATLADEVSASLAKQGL
Protocol: Assembly of synthetic PHFs of tau protein (K19, 10 μM) was performed at 37° C. in the presence of polyanions (heparin; 5 μM) in 50 mM NH4Ac, pH 6.8. Assembly was followed either qualitatively by electron microscopy or quantitatively by fluorescence assay using thioflavine S. PHF-formation of tau isoforms htau23 and htau24 was carried out in PBS-buffer pH 7.4, 50 μM protein, and 12.5 μM heparin. The samples were incubated at 50° C. for 10 days. In the case of htau24 and K18, DTT was added at a final concentration of 1 mM each day in order to avoid intra-molecular disulfide crosslinking (Barghorn et al., 2000).

K18/Y310W = assay: Tryptophan fluorescence inhibition assay, K18/Y310W; type: biochemical, human; conditions: 60 μM compound
Source text: (§1) In order to exclude a possible distortion of the data by the dye the results of the ThS assays can be confirmed by a tryptophan fluorescence assay (Li et al., 2002). It allows the detection of the molecular environment of a tryptophan introduced instead of tyrosine 310 whose emission maximum is sensitive to the burial in a more hydrophobic surrounding upon PHF formation. Therefore the mutants K19/Y310W (FIG. 1I) and K18/Y310W (FIG. 1H) that contain a single tryptophan within the core of the PHF structure were created. In the soluble protein the emission maximum lies at ˜354 nm, whereas it shifts to 340 nm upon PHF formation (FIG. 3A, compare first and second entry). The emission peak can be shifted back by incubation at high concentrations of GuHCl which is due to the disassembly of the PHFs (FIG. 3A, fourth entry).
(§2) The fluorescence experiments were performed on a Spex Fluoromax spectrophotometer (Polytec, Waldbronn, Germany) using 3 mm×3 mm micro cuvettes from Hellma (Mühlheim, Germany) with 20 μl sample volumes. A tryptophan emission spectrum scans from 300 to 450 nm at fixed excitation wavelength of 290 nm. The slit widths were 5 nm, the integration time was 0.25 second, and the photomultiplier voltage was 950 V. For fluorescence inhibition assay, 60 μM compounds were incubated with K19/Y310W construct (10 μM) or K18/ΔK280/Y310W and heparin (2.5 μM) in PBS, pH 7.4 three days at 37° C.
In the Trp fluorescence assay the inhibition of PHF assembly becomes apparent if the emission maximum of Trp310 remains higher than that of the control without any compound, because Trp310 remains in a more solvent-accessible hydrophilic environment. The three repeat tau construct K19 (at 10 μM) was prevented from polymerisation by about 90% by the presence of all compounds at a concentration, of 60 μM (FIG. 3A, note that entries 5-9 retain their values around 354 nm, similar to the control #1). […] The internal ranking stays roughly the same as with K18; PHF005 (#9) is the best, PHF016 (#8) the worst inhibitor. […] The apparent degrees of inhibition differ somewhat between the ThS fluorescence and the intrinsic Trp fluorescence assays, but this may be due to the different origins of the signal. In the ThS assay the dye has to bind to the filaments, which requires a minimal length of the fibres. The tryptophan fluorescence assay depends on the local surrounding of the residue and is therefore less dependent on the length of the filaments.
(A-C) fluorescence emission maximum of the single tryptophan W310 inserted by site-directed mutagenesis into tau constructs K19 (FIG. 3A), K18 (FIG. 3B) and K18/ΔK280 (FIG. 3C). Fully solvent-accessible Trp has an emission maximum at ˜355 nm, a blue-shift to lower wavelengths is an indicator of PHF aggregation. […]

PHFs from htau23 = molecular target: T2, PHFs from htau23 (Homo sapiens, UniProt P10636); assay: Filter trapping assay, depolymerisation of PHFs; type: biochemical; conditions: PVDF filter, antibody K9JA
T2 construct: made in house; host or cells: E. coli
T2 sequence (P10636 1-352 isoform P10636-2): as above
Protocol: The effect of compounds on the depolymerisation of PHFs was analysed using a filter trapping assay. This assay monitors aggregated tau which is trapped on a membrane filter, whereas the soluble protein is washed through. Therefore the technique preferably detects larger filaments, similar to the ThS assay.
Aggregates of tau were trapped by filtration through a PVDF-membrane (pore diameter 0.45 μm, Schleicher and Schuell, Düren, Germany) adapted to 96-well dot blot apparatus. The PVDF-membrane was wetted with methanol and rinsed with PBS-buffer before incorporated into the dot blot apparatus. The samples were pipetted into 100 μl of PBS and filtered. The membrane was washed three times with PBS before taken out of the apparatus and blocked with 5% milk powder in PBS for 30 minutes in a rotational shaker at room temperature. The polyclonal antibody K9JA was used as primary antibody and incubated at a dilution of 1:20.000 at room temperature for one hour. […] After three times washing with TBS-Tween the signal was detected using the ECL system (Amersham Pharmacia) and pictures were taken with the digital gel documentation system Fuji film BAS3000 (Raytest, Straubenhardt, Germany). Quantification of the signals was performed with the AIDA-software package (Raytest, Straubenhardt, Germany).
(D) Depolymerisation of PHFs from htau23 measured by filter assay. […]

K18/ΔK280/Y310W = assay: Tryptophan fluorescence inhibition assay, K18/ΔK280/Y310W; type: biochemical, human; conditions: 60 μM compound
Source text: as §1, with “The emission peak can be shifted back by incubation at high concentrations of GuHCl which is due to the disassembly of the PHFs (FIG. 3A, fourth entry).” left out
as §2, with “A tryptophan emission spectrum scans from 300 to 450 nm at fixed excitation wavelength of 290 nm.” left out, “C. […]” for “C.”
(A-C) fluorescence emission maximum of the single tryptophan W310 inserted by site-directed mutagenesis into tau constructs K19 (FIG. 3A), K18 (FIG. 3B) and K18/ΔK280 (FIG. 3C). […]

[1] = tested on: PHFs from K18/ΔK280/Y310W; assay: Tryptophan fluorescence depolymerisation assay, K18/ΔK280; type: biochemical, human; conditions: 60 μM compound
Protocol: For the fluorescence depolymerisation assay, 60 μM inhibitor compound were added to pre-formed PHFs (10 μM) and incubated overnight at 37° C. PHFs were formed by incubation of tau construct K19/Y310W (50 μM) or K18/ΔK280/Y310W with 12.5 μM heparin in volume of 100 μl at 37° C. in PBS, pH 7.4. Incubation time was three days. The formation of aggregates was observed as a shift of the emission maximum from ˜354 nm to ˜340 nm.
FIG. 5: Disassembly of preformed PHFs measured by tryptophan fluorescence shift assay and filter assay. Experiments were performed with tau constructs containing the Y310W mutation as in FIG. 3.

K19 PHFs = molecular target: T3, K19 PHFs (Homo sapiens, UniProt P10636); assay: Depolymerisation of K19 PHFs at prolonged incubation times; type: biochemical; conditions: 0.5 μM compound, after 12 hours
T3 construct: construct K19 containing three repeats; made in house; host or cells: E. coli
T3 sequence (P10636 with tags, fused parts or gaps isoform P10636-2 limits assumed): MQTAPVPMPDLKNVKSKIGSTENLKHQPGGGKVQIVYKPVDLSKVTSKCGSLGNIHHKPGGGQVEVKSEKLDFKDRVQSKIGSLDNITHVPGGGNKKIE
Protocol: Untreated controls were measured in parallel and subtracted as background.

[2] = ThS fluorescence, read-out: Inhibition of tau aggregation IC50, hTau23

Row | SMILES | IC50 (htau23) [nM] | inhibition of PHF formation, K18/Y310W, Trp fluorescence (K18/Y310W) | IC50 (htau23; [2]) [nM] | inhibition at 0.1 µM (htau23) [%] | inhibition at 60 µM (htau23) [%] | inhibition at 0.1 µM (htau23; 0.1 μM compound) [%] | inhibition at 60 µM (htau23; 60 μM compound) [%] | DC50 (PHFs from htau23) [nM] | effect on PHF formation, htau23 (htau23) | ranking as inhibitor, K18/ΔK280, Trp fluorescence (K18/ΔK280/Y310W) | depolymerising PHFs, K18/ΔK280, Trp fluorescence [1] | depolymerisation of K19 PHFs (K19 PHFs)
1 | COc1cccc2c1C(=O)c1c(O)c3c(c(O)c1C2=O)CC(O)(C(=O)CO)CC3OC1CC(N)C(O)C(C)O1 (stereo not shown) [Adriamycin, 10-(4-Amino-5-hydroxy-6-methyl-tetrahydro-pyran-2-yloxy)-6,8,11-trihydroxy-8-(2-hydroxyethanoyl)-1-methoxy-7,8,9,10-tetrahydro-naphthacene-5,12-dione, reference compound] | 200 | about 70% | – | – | – | – | – | – | – | – | – | –
2 | COc1cccc2c1C(=O)c1c(O)c3c(c(O)c1C2=O)CC(O)(C(C)=O)CC3OC1CC(N)C(O)C(C)O1 (stereo not shown) [Daunorubicin, 8-Acetyl-10-(4-amino-5-hydroxy-6-methyl-tetrahydro-pyran-2-yloxy)-6,8,11-trihydroxy-1-methoxy-7,8,9,10-tetrahydro-naphthacene-5,12-dione, reference compound] | – | about 70% | 100 | ~50 | ~90 | – | – | – | – | – | – | –
3 | Cc1cc(O)c2c(c1)C(=O)c1cc(O)cc(O)c1C2=O [Emodin, 1,3,8-Trihydroxy-6-methyl-anthraquinone] | – | about 70% | 200 | – | – | ~50 | ~90 | ~500 | – | – | – | –
4 | O=C(c1ccccc1)c1ccc(O)c(O)c1O [PHF005, 1-Phenyl-1-(2,3,4-trihydroxy-phenyl)-methanone] | – | – | 1100 | – | – | – | ~50 | – | only a slight effect | best | most potent agent | Nearly no effects
5 | O=C1c2ccc(O)c(O)c2C(=O)c2c(O)ccc(O)c21 [PHF016, 1,2,5,8-Tetrahydroxy-anthraquinone] | – | 25% | 1000 | – | – | – | ~50 | – | only a slight effect | worst | – | –
